{"source": "patent US20220130517A1", "about": "“PS[…] VARIOUS MENTAL HEALTH DISORDERS” (Ketamine SLC, priority 2020, published 2022)", "origin": "cited, not measured here", "tested_on": "mental health disorder", "details": "IV drip over 40 minutes, 0.5 mg/kg per session, six sessions over twelve days; some patients", "data": [{"smiles": "CNC1(c2ccccc2Cl)CCCCC1=O", "note": "(stereo not shown) [ketamine]", "values": [{"measurement": "relief from the symptoms of mental health disorder", "result": "some patients experience relief from the symptoms of their mental health disorder for a period of time including weeks and/or months"}]}]}
